Data taken from patent US5104865A, “Iron complexes of hydroxypyridones useful for treating iron overload” (National Research Development Corporation, priority 1983, dated 1992).
Like-named read-outs stand apart in the source and are kept apart here. One block for each molecule: values may come before it.

How the values were obtained:
[1] = target: T1, Human transferrin (Homo sapiens, UniProt P02787); experiment: Mobilisation of iron from transferrin; format: biochemical; settings: for Percentage of iron removed from transferrin after 6 hours: compound 4×10^-3 M, 59Fe(III) transferrin 10^-5 M, tris HCl 0.1M pH 7.4, 6 hours
T1 construct: purchased Sigma
T1 sequence (P02787 20-698): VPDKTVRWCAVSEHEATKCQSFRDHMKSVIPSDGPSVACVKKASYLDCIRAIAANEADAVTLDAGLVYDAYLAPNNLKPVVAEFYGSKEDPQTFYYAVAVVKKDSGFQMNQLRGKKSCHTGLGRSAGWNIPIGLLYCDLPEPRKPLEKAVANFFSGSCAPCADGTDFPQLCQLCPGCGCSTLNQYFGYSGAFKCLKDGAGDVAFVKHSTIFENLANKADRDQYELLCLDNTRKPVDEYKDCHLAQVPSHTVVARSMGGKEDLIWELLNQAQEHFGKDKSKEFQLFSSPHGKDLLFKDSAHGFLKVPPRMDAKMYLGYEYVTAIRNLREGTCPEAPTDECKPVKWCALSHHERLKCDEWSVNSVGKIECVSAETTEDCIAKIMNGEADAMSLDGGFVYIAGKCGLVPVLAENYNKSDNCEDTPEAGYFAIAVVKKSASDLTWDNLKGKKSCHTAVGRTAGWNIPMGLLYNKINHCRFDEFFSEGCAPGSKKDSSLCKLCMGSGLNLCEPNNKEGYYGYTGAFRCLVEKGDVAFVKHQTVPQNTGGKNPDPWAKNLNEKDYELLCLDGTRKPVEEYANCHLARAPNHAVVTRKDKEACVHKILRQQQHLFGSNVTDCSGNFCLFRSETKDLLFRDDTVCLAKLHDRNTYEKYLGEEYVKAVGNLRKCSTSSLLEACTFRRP
Method: Human transferrin (Sigma) was loaded with iron(III) by the method of Bates and Schlaback, J. Biol. Chem. (1973) 248, 3228. ^59 Iron (III) transferrin (10^-5 M) was incubated with a 4×10^-3 M solution in tris HCl (0.1M, pH 7.4) of one of various pyridones as indicated in Table 4 for periods of 6 hours.

[2] = 100 uM, pH 7.4
Method: (§1) The partition coefficient Kpart, being the ratio (concentration of compound in n-octanol)/(concentraction of compound in aqueous phase) on partition between n-octanol and aqueous tris hydrochloride (20 mM, pH 7.4), is measured by spectrophotometry at 20° C. for various of the compounds of the previous Examples and for their iron(III) complexes (at 10^-4 M). […] Acid washed glassware is used throughout and, following mixing of 5 ml of the 10^-4 M aqueous solution with 5 ml n-octanol for 1 minute, the aqueous n-octanol mixture is centrifuged at 1,000 g for 30 seconds. The two resulting phases are separated for a concentration determination by spectrophotometry on each. For the metal-free linked hydroxypyridone compounds, the range 220-340 nm is used for concentration determinations whilst for the iron complexes, the range 340-640 nm is used.

[3] = Partition coefficient Kpart between n-octanol and aqueous tris hydrochloride; settings: n-octanol/tris hcl, pH 7.4
Method: as §1

[4] = target: T2, Horse spleen ferritin (Equus caballus, UniProt P02791); settings: similar test, cited from earlier work
T2 construct: purchased Sigma; host or cells: horse spleen
T2 sequence (P02791 2-175 limits assumed): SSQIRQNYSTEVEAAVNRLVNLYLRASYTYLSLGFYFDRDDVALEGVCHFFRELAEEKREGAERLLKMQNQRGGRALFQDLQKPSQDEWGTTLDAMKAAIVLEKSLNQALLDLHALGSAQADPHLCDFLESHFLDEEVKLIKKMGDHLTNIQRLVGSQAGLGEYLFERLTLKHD

[5] = Affinity for iron(III) expressed as log Ksol; format: physicochemical
From the text: In order to solubilise iron(III) hydroxide, log Ksol must be greater than 0 and in order to remove iron from transferrin, log Ksol should be in excess of 6.0. The log Ksol values for the single ring compounds 3-hydroxyl-1-methylpyrid-2-one and 1,2-dimethyl-3-hydroxypyrid-4-one, by way of example, are 10.0 and 9.5, respectively, thus comparing favourably with those of the bidentate hydroxamates at about 4.0, of catechols at about 8.0, of desferrioxamine at 6.0, and of diethylenetriamine penta-acetic acid (DTPA) at 2.0.

[6] = tested on: inverted rat jejunal sac; experiment: Permeation of inverted rat jejunal sac by iron complexes; format: in vitro ADME; settings: relative to ferric chloride as 1; 59Fe complexes, 37° C., up to 1 hour
From the text: Rats (male Sprague Dawley, 60 g) were killed and the jejunum removed, everted and cut into three segments (4 cm length). […] The contents of the sac were counted for ^59 Fe and measured spectrophotometrically.

[7] = target: T2, Horse spleen ferritin; experiment: Mobilisation of iron from ferritin; format: biochemical; settings: 25° C., pH 7.4
Method: Horse spleen ferritin (Sigma) was used without further purification and its iron content was estimated spectrophotometrically at 420 nm. The ferritin solution in phosphate buffered saline (Dulbecco-OXOID, 10^-6 M, pH 7.4) was incubated at 25° C. with the compound at 10^-4 M for 6 and 24 hours. Apoferritin (in admixture with ferritin) and the particular linked hydroxypyridone Fe^(III) complex were separated by chromatography on Sephadex G10. The absorption spectra of the high and low molecular weight fractions were recorded and the percentage of iron removed from the ferritin was calculated and is reported in Table 3. For comparative purposes, the procedure was repeated using a blank control, and also with the single ring, bidentate compound 1-ethyl-3-hydroxypyrid-4-one (at 10^-3 M). In addition, results reported in the literature for similar tests with 1×10^-3 M desferrioxamine (Crichton et al, J. Inorganic Biochem., 1980, 13, 305) and with 6×10^-3 M LICAMS (Tufano et al, Biochem. Biophys. Acta, 1981, 668, 420 ) are also given in the Table.

[8] = tested on: human erythrocytes; experiment: Permeation of 59Fe labelled iron complexes into human erythrocytes; format: cell-based; settings: 59Fe complex 10^-3 M, 5% erythrocyte suspension, 1 hour, 37° C., pH 7.4; mean of at least three determinations
Method: The accumulation of iron by human erythrocytes which are associated with the iron complexes of three compounds described in earlier Examples was studied by incubating for 1 hour at 37° C. a 5% suspension of erythrocytes in a medium consisting of the ^59 Fe labelled iron complex^(1) (10^-3 M) in aqueous sodium chloride (130 mM) buffered to pH 7.4 by tris hydrochloride (2 ml). Following this period of incubation, an aliquot of the erythrocyte/medium mixture was placed above a layer of silicone oil and the erythrocytes separated by centrifugation through the oil. The ^59 Fe levels associated with the erythrocytes and the incubation medium were then counted. By way of comparison, a similar experiment was concluded with ferric citrate.

Molecule: O=C(O)CN(CCN(CC(=O)O)CC(=O)O)CC(=O)O [EDTA, ethylenediamine tetra-acetic acid, reference compound]
Percentage of iron removed from transferrin after 6 hours [1]: 27%

Partition coefficient Kpart, iron complex [Fe^III -(compound)3 ] [2]: 0.3
logD at 100 µM [3]: -0.699
Molecule: O=C(Cn1cccc(O)c1=O)NCCCN(CCCNC(=O)Cn1cccc(O)c1=O)C(=O)Cn1cccc(O)c1=O [Compound 10, N-(3-hydroxy-2-oxopyrid-1-ylacetyl)-N-[3-(3-hydroxy-2-oxopyrid-1-ylacetamido)-propyl]-3-(3-hydroxy-2-oxopyrid-1-ylacetamido)-propylamine]

Molecule: O=C(NCCCCN(CCCNC(=O)c1cc(S(=O)(=O)O)cc(O)c1O)C(=O)c1cc(S(=O)(=O)O)cc(O)c1O)c1cc(S(=O)(=O)O)cc(O)c1O [LICAMS]
Percentage of iron removed from ferritin, 6 hours ([4]; 6 × 10^-3 M, literature value (Tufano et al 1981)): 0%

Molecule: Cn1cccc(O)c1=O [3-hydroxyl-1-methylpyrid-2-one]
log Ksol [5]: 10.0

Molecule: [Cl][Fe]([Cl])[Cl] [FeCl3, ferric chloride]
Relative iron uptake into serosal space of jejunal sac [6]: 1

Partition coefficient Kpart, iron complex [Fe^III -(compound)3 ] [2]: 0.10
Percentage of iron removed from transferrin after 6 hours [1]: 32%
logD at 100 µM [3]: -1.77
Molecule: O=C(Cn1cccc(O)c1=O)NCCCCCCCCNC(=O)Cn1cccc(O)c1=O [Compound 5]

Percentage of iron removed from ferritin, 6 hours ([7]; compound 10^-3 M): 25%
Percentage of iron removed from ferritin, 24 hours ([7]; compound 10^-3 M): 44%
Molecule: CCn1ccc(=O)c(O)c1 [1-ethyl-3-hydroxypyrid-4-one, reference compound]

Molecule: Cc1c(O)c(=O)ccn1C [1,2-dimethyl-3-hydroxypyrid-4-one]
log Ksol [5]: 9.5

Molecule: O=C(O)CN(CCN(CC(=O)O)CC(=O)O)CCN(CC(=O)O)CC(=O)O [DTPA, diethylenetriamine penta-acetic acid]
log Ksol [5]: 2.0

Percentage of iron removed from ferritin, 6 hours ([7]; compound 10^-4 M): < 1%
Percentage of iron removed from ferritin, 24 hours ([7]; compound 10^-4 M): 3%
Molecule: O=C(Cn1cccc(O)c1=O)NCCCCCCNC(=O)Cn1cccc(O)c1=O [Compound 4, 1,6-di-(3-hydroxy-2-oxopyrid-1-ylacetamido)-hexane]

Partition coefficient Kpart, iron complex [Fe^III -(compound)3 ] [2]: 0.03
Percentage of iron removed from transferrin after 6 hours [1]: 40%
logD at 100 µM [3]: -1.7
Percentage of iron removed from ferritin, 6 hours ([7]; compound 10^-4 M): 3%
Percentage of iron removed from ferritin, 24 hours ([7]; compound 10^-4 M): 10%
Molecule: O=C(Cn1cccc(O)c1=O)NCCN(CCNC(=O)Cn1cccc(O)c1=O)CCNC(=O)Cn1cccc(O)c1=O [Compound 8]
Removal of iron from transferrin, comparison in words ([1]; versus desferrioxamine and EDTA): markedly better results than desferrioxamine or EDTA

Molecule: ferric citrate [Fe^III citrate]
Amount of complex entering erythrocytes [8]: < 5 n.mole

Percentage of iron removed from transferrin after 6 hours [1]: 17%
Molecule: CC(=O)N(O)CCCCCNC(=O)CCC(=O)N(O)CCCCCNC(=O)CCC(=O)N(O)CCCCCN [Desferrioxamine, desferrioxamine]
Percentage of iron removed from ferritin, 6 hours ([4]; 10^-3 M, literature value (Crichton et al 1980)): 1.2%
log Ksol [5]: 6.0
